Earlier results, collected in patent US20040110696A1, “GENE THERAPY SYSTEM AND METHOD USING ALPHA-MSH AND ITS DERIVATIVES” (priority 2003, published 2004).
Where no end group is shown, it is not given here.

Legend:
[1] = test system: fever; settings: for antipyretic potency: relative to the α-MSH(11-13) sequence; for antipyretic activity: rabbit, in vivo
[2] = test system: inflammation; settings: for anti-inflammatory activity: in vitro and in vivo

For “8-13 sequence: α-MSH fragment, residues 8-13 (RWGKPV; ends and bridges not checked; UniProt P01189 145-150, looked up, fragment)”, the antipyretic potency [1] is given as “greater than that of the 11-13 sequence”.

In the case of “9-13 sequence: α-MSH fragment, residues 9-13 (WGKPV; ends and bridges not checked; UniProt P01189 146-150, looked up, fragment)”, the antipyretic potency [1] is given as “almost devoid of activity”.

For “10-13 sequence: α-MSH(11-13) with glycine added to form the 10-13 sequence (GKPV; ends and bridges not checked; UniProt P01189 147-150, looked up, fragment)”, the antipyretic potency [1] is listed as “slightly decreased potency”.

In the case of Ac-[D-K11]-α-MSH 11-13-NH2, the “general potency of α-MSH (11-13) stereochemical analogs” value ([2]; relative to L-form tripeptide, kind of activity not given, cited Hiltz 1991 anti-inflammatory activity) is given as “same general potency as the L-form”.

In the case of MEHFRWG [α-MSH sequence (4-10)], the antipyretic activity [1] is given as “little” and the anti-inflammatory activity [2] is given as “little”.

In the case of [Nle^4,D-Phe^7]-α-MSH, the “potency in reducing fever” value ([1]; relative to the parent peptide α-MSH) is listed as “approximately ten times more potent”.

For lysine-proline-valine [KPV], the antipyretic activity [1] is given as “parallel those of the parent molecule” and the anti-inflammatory activity [2] is given as “parallel those of the parent molecule”.
